These results are taken from ChEMBL document CHEMBL4808232, “Discovery of IDO1 inhibitors containing a decahydroquinoline, decahydro-1,6-naphthyridine, or octahydro-1H-pyrrolo[3,2-c]pyridine scaffold” (Bioorg Med Chem Lett, 2021).

Active and inactive are the calls of the source. No cut-off for these calls is given here.

Data set [1] concerns the target T1, Indoleamine 2,3-dioxygenase 1 (Homo sapiens, UniProt P14902). In words: Inhibition of IDO1 in human HeLa cells assessed as production of N-formylkynurenine using tryptophan as substrate in presence of inactivated fetal bovine serum. Type of data set: cell-based.
Data set [2] in a line: Unbound clearance in male Wistar Han rat at 0.05 mg/kg, iv. Type of data set: ADME, organism-based. The following applies: in vivo.
The nature of data set [3]: MRT in male Wistar Han rat at 0.05 mg/kg, iv. The following applies: in vivo. It counts as ADME, organism-based.
The target of data set [4] is T1, Indoleamine 2,3-dioxygenase 1. As to the kind of experiment: Inhibition of IDO1 in human whole blood. It counts as tissue-based.
Data set [5] shares this target. In words: Inhibition of IDO1 in human whole blood assessed as unbound concentration. Type of data set: tissue-based.
Data set [6] has as its target Tryptophan 2,3-dioxygenase (Homo sapiens) (UniProt P48775). In words: Inhibition of TDO in human SW48 cells. Type of data set: cell-based.
The mark [7] stands for this setting: male, Wistar Han, read-out: MRT.

Chain of Tryptophan 2,3-dioxygenase (Homo sapiens) (P48775 whole entry, looked up): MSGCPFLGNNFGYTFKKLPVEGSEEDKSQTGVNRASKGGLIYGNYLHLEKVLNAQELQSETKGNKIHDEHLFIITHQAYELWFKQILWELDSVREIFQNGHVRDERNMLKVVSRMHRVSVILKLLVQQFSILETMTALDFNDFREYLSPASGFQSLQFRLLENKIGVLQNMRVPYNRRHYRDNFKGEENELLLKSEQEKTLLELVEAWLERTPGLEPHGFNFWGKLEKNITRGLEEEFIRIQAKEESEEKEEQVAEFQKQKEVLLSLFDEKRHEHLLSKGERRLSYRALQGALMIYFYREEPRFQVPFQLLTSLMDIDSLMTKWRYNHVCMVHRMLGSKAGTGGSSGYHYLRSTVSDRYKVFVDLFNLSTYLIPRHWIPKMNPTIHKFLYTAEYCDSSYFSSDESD
T1 sequence (P14902 whole entry): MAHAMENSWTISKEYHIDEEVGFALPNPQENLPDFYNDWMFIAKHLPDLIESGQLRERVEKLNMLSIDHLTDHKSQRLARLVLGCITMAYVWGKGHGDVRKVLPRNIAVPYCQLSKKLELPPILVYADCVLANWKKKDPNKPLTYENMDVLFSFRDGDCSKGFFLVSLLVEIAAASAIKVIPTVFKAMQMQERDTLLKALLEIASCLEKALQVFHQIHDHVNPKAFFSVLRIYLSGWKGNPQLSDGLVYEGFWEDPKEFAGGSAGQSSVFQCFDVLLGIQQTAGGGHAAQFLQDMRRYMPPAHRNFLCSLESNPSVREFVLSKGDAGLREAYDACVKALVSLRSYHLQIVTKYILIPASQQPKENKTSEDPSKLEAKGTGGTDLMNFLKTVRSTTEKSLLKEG

The term IC50 denotes the concentration that gives 50% inhibition. The term MRT denotes the average time that molecules of a dose stay in the body. Consider `O=C(Nc1ccc(F)cc1)C1(C2CCC3C(CCCN3c3ccnc(C(F)(F)F)n3)C2)CCC1` (stereo in doubt; 19) [listing 1 of 2 here], for which, in data set [1], the IC50 was 1.9 nM. This compound had a CL free in data set [2] of 799.26 L/h/kg. The MRT in data set [3] (setting [7]) was 1.9 h. On to `O=C(Nc1ccc(F)cc1)C1(C2CCC3C(CCCN3c3ccnc(C(F)(F)F)n3)C2)CCC1` (stereo in doubt; 20) [listing 1 of 2 here], for which the concentration for half-maximal inhibition (IC50) in data set [1] was found to be 1.9 nM; in data set [4], 48 nM; in data set [5] it was 0.1 nM. This compound also gave a CL free in data set [2] of 592.7 L/h/kg. In addition, the MRT in data set [3] (0.05 mg/kg) was 2.7 h. As to `CC(C(=O)Nc1ccc(Cl)cc1)N1CCC2C(CCN2C(=O)OC2CC2)C1` (stereo in doubt; 40), in data set [1], the IC50 came out at 1150 nM. Turning to `C[C@@H](C(=O)Nc1ccc(F)cc1)C1CCC2C(CCCN2C(=O)c2cccc(Cl)c2)C1` (stereo in doubt; 4) [listing 1 of 2 here], the inhibition result in data set [6] was “inactive”. Consider `O=C(C1CC1)N1CCCC2CC(C3(C(=O)Nc4ccc(F)cc4)CCC3)CCC21` (stereo in doubt; 11) [listing 1 of 2 here], for which the inhibition result in data set [6] is “inactive”. For the compound `CC(C(=O)Nc1ccc(Cl)cc1)N1CCC2C(CCN2C(=O)OC2CC2)C1` (stereo in doubt; 38), the IC50 in data set [1] worked out at 16 nM. Also, in data set [2], the CL free was found to be 143.6 L/h/kg. The MRT in data set [3] (setting [7]) is 1.5 h. As for `O=C(c1cccc(Cl)c1)N1CCCC2CC(C3(C(=O)Nc4ccc(F)cc4)CCC3)CCC21` (stereo in doubt; 10) [listing 1 of 2 here], the inhibition entry in data set [6] was “inactive”. In the case of `C[C@@H](C(=O)Nc1ccc(F)cc1)C1CCC2C(CCCN2C(=O)c2cccc(Cl)c2)C1` (stereo in doubt; 6) [listing 1 of 2 here], in data set [6], the inhibition result is “inactive”. Take `O=C(C1CC1)N1CCCC2CC(C3(C(=O)Nc4ccc(F)cc4)CCC3)CCC21` (stereo in doubt; 12) [listing 1 of 2 here]: the inhibition result in data set [6] is “inactive”. As to `Cc1nccc(-n2ncc3c2CCN(C(C)C(=O)Nc2ccc(Cl)cc2)C3)n1` (stereo in doubt; 41), the IC50 in data set [1] came out at 1050 nM. As to `CC(C(=O)Nc1ccc(Cl)cc1)N1CCC2C(CCCN2C(=O)OC2CC2)C1` (stereo in doubt; 28), the IC50 in data set [1] worked out at 32 nM.

As for `C[C@@H](C(=O)Nc1ccc(F)cc1)C1CCC2C(CCCN2C(=O)c2cccc(Cl)c2)C1` (stereo in doubt; 6) [listing 2 of 2 here], in data set [1], the IC50 turned out to be 2.3 nM. In data set [2], the CL free is 269 L/h/kg. Moreover, in data set [3] (0.05 mg/kg), the MRT is 1.1 h. For the compound `O=C(Nc1ccc(F)cc1)C1(C2CCC3C(CCCN3c3ccnc(C(F)(F)F)n3)C2)CCC1` (stereo in doubt; 22) [listing 1 of 2 here], the IC50 in data set [1] came to 3.2 nM. This compound also registered a CL free in data set [2] of 357.1 L/h/kg. In data set [3] (0.05 mg/kg), this compound came in with an MRT of 3.5 h. Turning to `O=C(c1cccc(Cl)c1)N1CCCC2CC(C3(C(=O)Nc4ccc(F)cc4)CCC3)CCC21` (stereo in doubt; 9) [listing 1 of 2 here], the inhibition result in data set [6] is “inactive”.

On to `O=C(Nc1ccc(F)cc1)C1(C2CCC3C(CCCN3c3ccnc(C(F)(F)F)n3)C2)CCC1` (stereo in doubt; 21) [listing 1 of 2 here], for which, in data set [1], the IC50 turned out to be 2.6 nM. Besides, the CL free in data set [2] is 431 L/h/kg. In data set [3] (0.05 mg/kg), this compound displayed an MRT of 2.9 h. As to `CC(C(=O)Nc1ccc(Cl)cc1)N1CCC2C(CCN2C(=O)OC2CC2)C1` (stereo in doubt; 37), the IC50 in data set [1] is 11 nM. As to `Cc1nccc(-n2ncc3c2CCN(C(C)C(=O)Nc2ccc(Cl)cc2)C3)n1` (stereo in doubt; 42), the IC50 in data set [1] was 27700 nM.

For the compound `O=C(Nc1ccc(F)cc1)C1(C2CCC3C(CCCN3c3ccnc(C(F)(F)F)n3)C2)CCC1` (stereo in doubt; 19) [listing 2 of 2 here], the inhibition entry in data set [6] is “inactive”.

Consider `O=C(C1CC1)N1CCCC2CC(C3(C(=O)Nc4ccc(F)cc4)CCC3)CCC21` (stereo in doubt; 13) [listing 1 of 2 here], for which the half-inhibitory concentration (IC50) in data set [1] was 19 nM.

For the compound `O=C(C1CC1)N1CCCC2CC(C3(C(=O)Nc4ccc(F)cc4)CCC3)CCC21` (stereo in doubt; 14) [listing 1 of 2 here], the IC50 in data set [1] was found to be 115 nM. For the compound `C[C@@H](C(=O)Nc1ccc(F)cc1)C1CCC2C(CCCN2C(=O)c2cccc(Cl)c2)C1` (stereo in doubt; 4) [listing 2 of 2 here], the IC50 in data set [1] stood at 1.9 nM. On to `CC(C(=O)Nc1ccc(Cl)cc1)N1CCC2C(CCCN2c2ccnc(C(F)(F)F)n2)C1` (stereo in doubt; 36), for which the IC50 worked out at 5.4 nM in data set [1] and 1000 nM in data set [4]. The CL free in data set [2] stood at 1666 L/h/kg. For the same compound, the MRT in data set [3] (0.05 mg/kg) was determined as 3.7 h.

As for `CC(C(=O)Nc1ccc(Cl)cc1)N1CCC2C(CCCN2c2ccnc(C(F)(F)F)n2)C1` (stereo in doubt; 35), the IC50 in data set [1] stood at 430 nM.

For `C[C@@H](C(=O)Nc1ccc(F)cc1)C1CCC2C(CCCN2C(=O)c2cccc(Cl)c2)C1` (stereo in doubt; 5) [listing 1 of 2 here], the IC50 in data set [1] came out at 2.1 nM; in data set [4] it was 312 nM. On to `O=C(C1CC1)N1CCCC2CC(C3(C(=O)Nc4ccc(F)cc4)CCC3)CCC21` (stereo in doubt; 14) [listing 2 of 2 here], for which the inhibition result in data set [6] was “inactive”. With `CC(C(=O)Nc1ccc(Cl)cc1)N1CCC2C(CCCN2C(=O)OC2CC2)C1` (stereo in doubt; 25), the results for the IC50 in data set [1] and in data set [4] were 3.7 nM and 293 nM, respectively. With `Cc1nccc(N2CCCC3CN(C(C)C(=O)Nc4ccc(Cl)cc4)CCC32)n1` (stereo in doubt; 29), the IC50 in data set [1] came out at 302 nM. As for `O=C(c1cccc(Cl)c1)N1CCCC2CC(C3(C(=O)Nc4ccc(F)cc4)CCC3)CCC21` (stereo in doubt; 8) [listing 1 of 2 here], the inhibition entry in data set [6] was “inactive”.

For `Cc1nccc(N2CCCC3CC(C4(C(=O)Nc5ccc(F)cc5)CCC4)CCC32)n1` (stereo in doubt; 16) [listing 1 of 2 here], the IC50 in data set [1] is 4.2 nM. The compound further showed a CL free in data set [2] of 113 L/h/kg. In data set [3] (0.05 mg/kg), the mean residence time MRT was 1.8 h. With `O=C(c1cccc(Cl)c1)N1CCCC2CC(C3(C(=O)Nc4ccc(F)cc4)CCC3)CCC21` (stereo in doubt; 10) [listing 2 of 2 here], in data set [1], the IC50 worked out at 14 nM. On to `O=C(Nc1ccc(F)cc1)C1(C2CCC3C(CCCN3c3ccnc(C(F)(F)F)n3)C2)CCC1` (stereo in doubt; 20) [listing 2 of 2 here], for which, in data set [6], the inhibition result is “inactive”. Regarding `O=C(c1cccc(Cl)c1)N1CCCC2CC(C3(C(=O)Nc4ccc(F)cc4)CCC3)CCC21` (stereo in doubt; 7) [listing 1 of 2 here], the IC50 in data set [1] came to 2.4 nM; in data set [4], 123 nM; in data set [5], 0.98 nM. Take `CC(C(=O)Nc1ccc(Cl)cc1)N1CCC2C(CCCN2c2ccnc(C(F)(F)F)n2)C1` (stereo in doubt; 34): the IC50 in data set [1] amounted to 3.6 nM; in data set [4], 809 nM. Further, the CL free in data set [2] is 780.24 L/h/kg.

With `Cc1nccc(N2CCCC3CN(C(C)C(=O)Nc4ccc(Cl)cc4)CCC32)n1` (stereo in doubt; 30), the IC50 in data set [1] was 40 nM. For the compound `C[C@@H](C(=O)Nc1ccc(F)cc1)C1CCC2C(CCCN2C(=O)c2cccc(Cl)c2)C1` (stereo in doubt; 3), the inhibition entry in data set [6] was “inactive”. As to `Cc1nccc(N2CCCC3CC(C4(C(=O)Nc5ccc(F)cc5)CCC4)CCC32)n1` (stereo in doubt; 16) [listing 2 of 2 here], in data set [6], the inhibition result is “inactive”.

In the case of `CC(C(=O)Nc1ccc(Cl)cc1)N1CCC2C(CCCN2C(=O)OC2CC2)C1` (stereo in doubt; 26), the IC50 in data set [1] amounted to 9.1 nM. As for `O=C(C1CC1)N1CCCC2CC(C3(C(=O)Nc4ccc(F)cc4)CCC3)CCC21` (stereo in doubt; 13) [listing 2 of 2 here], the inhibition entry in data set [6] is “inactive”.

As to `O=C(Nc1ccc(F)cc1)C1(C2CCC3C(CCCN3c3ccnc(C(F)(F)F)n3)C2)CCC1` (stereo in doubt; 21) [listing 2 of 2 here], the inhibition result in data set [6] was “inactive”. `O=C(C1CC1)N1CCCC2CC(C3(C(=O)Nc4ccc(F)cc4)CCC3)CCC21` (stereo in doubt; 11) [listing 2 of 2 here]: the IC50 in data set [1] is 107 nM. Still for that read-out and setting: the figure for `O=C(CN1CCC2C(CCCN2C(=O)c2cccc(Cl)c2)C1)Nc1ccc(F)cc1` (stereo in doubt; 23) is 3.9 nM. On to `Cc1nccc(N2CCCC3CN(C(C)C(=O)Nc4ccc(Cl)cc4)CCC32)n1` (stereo in doubt; 31), for which the IC50 in data set [1] was found to be 2.9 nM; in data set [4], 130 nM. With `Cc1nccc(N2CCCC3CC(C4(C(=O)Nc5ccc(F)cc5)CCC4)CCC32)n1` (stereo in doubt; 15), in data set [6], the inhibition result is “inactive”.

Take `Cc1nccc(N2CCCC3CC(C4(C(=O)Nc5ccc(F)cc5)CCC4)CCC32)n1` (stereo in doubt; 18) [listing 1 of 2 here]: the inhibition result in data set [6] is “inactive”. As for `Cc1nccc(N2CCCC3CC(C4(C(=O)Nc5ccc(F)cc5)CCC4)CCC32)n1` (stereo in doubt; 18) [listing 2 of 2 here], in data set [1], the IC50 is 5.2 nM. For `Cc1nccc(N2CCCC3CC(C4(C(=O)Nc5ccc(F)cc5)CCC4)CCC32)n1` (stereo in doubt; 17) [listing 1 of 2 here], the inhibition entry in data set [6] is “inactive”. Consider `O=C(c1cccc(Cl)c1)N1CCCC2CC(C3(C(=O)Nc4ccc(F)cc4)CCC3)CCC21` (stereo in doubt; 8) [listing 2 of 2 here], for which the IC50 in data set [1] was 3 nM. Consider `O=C(Nc1ccc(F)cc1)C1(C2CCC3C(CCCN3c3ccnc(C(F)(F)F)n3)C2)CCC1` (stereo in doubt; 22) [listing 2 of 2 here], for which the inhibition entry in data set [6] is “inactive”. For the compound `O=C(C1CC1)N1CCCC2CC(C3(C(=O)Nc4ccc(F)cc4)CCC3)CCC21` (stereo in doubt; 12) [listing 2 of 2 here], the IC50 in data set [1] was 1.5 nM; in data set [4], 15 nM; in data set [5] it was 0.86 nM. Consider `CC(C(=O)Nc1ccc(Cl)cc1)N1CCC2C(CCN2C(=O)OC2CC2)C1` (stereo in doubt; 39), for which the half-maximal inhibitory concentration (IC50) in data set [1] was found to be 184 nM. The CL free in data set [2] is 39.8 L/h/kg. The compound further came in with an MRT in data set [3] (0.05 mg/kg) of 2.8 h. As for `C[C@@H](C(=O)Nc1ccc(F)cc1)C1CCC2C(CCCN2C(=O)c2cccc(Cl)c2)C1` (stereo in doubt; 5) [listing 2 of 2 here], the inhibition entry in data set [6] is “inactive”. As to `O=C(c1cccc(Cl)c1)N1CCCC2CC(C3(C(=O)Nc4ccc(F)cc4)CCC3)CCC21` (stereo in doubt; 9) [listing 2 of 2 here], the IC50 in data set [1] came to 7 nM. Take `Cc1nccc(N2CCCC3CC(C4(C(=O)Nc5ccc(F)cc5)CCC4)CCC32)n1` (stereo in doubt; 17) [listing 2 of 2 here]: the IC50 in data set [1] worked out at 32 nM. Take `O=C(c1cccc(Cl)c1)N1CCCC2CC(C3(C(=O)Nc4ccc(F)cc4)CCC3)CCC21` (stereo in doubt; 7) [listing 2 of 2 here]: the inhibition result in data set [6] was “inactive”.
